Experimental data as given in ChEMBL document CHEMBL5665443, “Enzyme Inhibitor Single Concentration assay results for EUbOPEN Chemogenomics Library” (2024).

How the values were obtained:
[1] = molecular target: N-glycosylase/DNA lyase (Homo sapiens) (UniProt O15527);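 also: OGG1 cleavage of a quenched duplex DNA oligonucleotide, coupled to APE1 for strand incision, read as fluorescence at 594 nm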
Description: Inhibition of OGG1 by quantifying inhibition of OGG1-mediated cleavage and dissociation of quenched duplex DNA oligonucleotides, measured as fluorescence at 594 nm. To generate a functional strand incision and increase turn-over this assay is coupled to APE1.

[2] = molecular target: T1, Endonuclease III-like protein 1 (Homo sapiens) (UniProt P78549); details: Hit No;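 also: enzyme assay tracking NTHL1 cutting and release of a quenched double-stranded DNA oligo substrate, read as fluorescence at 594 nm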
T1 sequence (whole entry): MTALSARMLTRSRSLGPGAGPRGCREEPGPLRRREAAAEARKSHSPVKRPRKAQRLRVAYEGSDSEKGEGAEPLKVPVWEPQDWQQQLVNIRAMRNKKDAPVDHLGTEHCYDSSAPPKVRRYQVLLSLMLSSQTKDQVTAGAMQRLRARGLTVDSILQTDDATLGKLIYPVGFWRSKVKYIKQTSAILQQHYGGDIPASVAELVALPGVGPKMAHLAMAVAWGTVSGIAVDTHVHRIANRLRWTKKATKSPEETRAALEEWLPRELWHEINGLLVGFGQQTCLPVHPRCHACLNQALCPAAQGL
Description: Inhibition of NTHL1 by quantifying inhibition of NTHL1-mediated cleavage and dissociation of quenched duplex DNA oligonucleotides, measured as fluorescence at 594 nm.

[3] = molecular target: T2, Single-strand selective monofunctional uracil DNA glycosylase (Homo sapiens) (UniProt Q53HV7); details: Hit No;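 also: enzymatic SMUG1 assay coupled with APE1, reading fluorescence at 594 nm released when a quenched double-stranded DNA oligonucleotide substrate is cleaved and separated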
T2 sequence (whole entry): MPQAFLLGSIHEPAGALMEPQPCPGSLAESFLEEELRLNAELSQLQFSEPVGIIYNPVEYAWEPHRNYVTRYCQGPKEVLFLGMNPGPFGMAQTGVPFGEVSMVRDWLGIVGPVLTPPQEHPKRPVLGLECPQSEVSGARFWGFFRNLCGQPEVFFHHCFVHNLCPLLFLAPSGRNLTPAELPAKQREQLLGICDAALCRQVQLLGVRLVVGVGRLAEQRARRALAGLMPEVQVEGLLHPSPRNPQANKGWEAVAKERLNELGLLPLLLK
Description: Inhibition of SMUG1 by quantifying inhibition of SMUG1-mediated cleavage and dissociation of quenched duplex DNA oligonucleotides, measured as fluorescence at 594 nm. To generate a functional strand incision and increase turn-over this assay is coupled to APE1.

[4] = molecular target: Endonuclease 8-like 1 (Homo sapiens) (UniProt Q96FI4); details: Hit No;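 also: fluorescence at 594 nm from quenched duplex DNA oligonucleotides released by NEIL1 cleavage and strand separation, reported as reduction of this enzyme activity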
Description: Inhibition of NEIL1 by quantifying inhibition of NEIL1-mediated cleavage and dissociation of quenched duplex DNA oligonucleotides, measured as fluorescence at 594 nm.

[5] = molecular target: T3, Endonuclease 8-like 2 (Homo sapiens) (UniProt Q969S2); details: Hit No;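 also: fluorescence at 594 nm reports NEIL2 cutting and release of a quenched double-stranded DNA oligo substrate, reduced signal read as inhibition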
T3 sequence (whole entry): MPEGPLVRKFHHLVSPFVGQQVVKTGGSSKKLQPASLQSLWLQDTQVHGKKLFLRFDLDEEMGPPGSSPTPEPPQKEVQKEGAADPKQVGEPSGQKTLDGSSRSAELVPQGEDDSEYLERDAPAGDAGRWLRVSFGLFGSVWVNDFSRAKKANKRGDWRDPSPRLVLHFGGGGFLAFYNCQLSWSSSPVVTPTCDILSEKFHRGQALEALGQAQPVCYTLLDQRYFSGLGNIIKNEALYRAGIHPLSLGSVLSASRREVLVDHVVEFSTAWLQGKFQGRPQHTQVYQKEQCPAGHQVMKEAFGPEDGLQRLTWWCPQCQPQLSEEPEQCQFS
Description: Inhibition of NEIL2 by quantifying inhibition of NEIL2-mediated cleavage and dissociation of quenched duplex DNA oligonucleotides, measured as fluorescence at 594 nm.

[6] = molecular target: Methyl-CpG-binding domain protein 4 (Homo sapiens) (UniProt O95243); details: Hit No;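 also: MBD4 activity read as fluorescence at 594 nm from cleavage and release of a quenched duplex DNA oligonucleotide, with APE1 coupled to incise the strand and raise turnover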
Description: Inhibition of MBD4 by quantifying inhibition of MBD4-mediated cleavage and dissociation of quenched duplex DNA oligonucleotides, measured as fluorescence at 594 nm. To generate a functional strand incision and increase turn-over this assay is coupled to APE1.

[7] = molecular target: G/T mismatch-specific thymine DNA glycosylase (Homo sapiens) (UniProt Q13569); details: Hit No;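 also: human TDG cleavage of quenched duplex DNA oligonucleotides coupled to APE1, strand release read as fluorescence at 594 nm, inhibition of TDG activity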
Description: Inhibition of TDG by quantifying inhibition of TDG-mediated cleavage and dissociation of quenched duplex DNA oligonucleotides, measured as fluorescence at 594 nm. To generate a functional strand incision and increase turn-over this assay is coupled to APE1.

[8] = molecular target: Uracil-DNA glycosylase (Homo sapiens) (UniProt P13051); details: Hit No;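 also: UNG excision on a quenched double-stranded DNA oligo probe, with APE1 added for strand incision and turnover, read as fluorescence at 594 nm as strands separate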
Description: Inhibition of UNG by quantifying inhibition of UNG-mediated cleavage and dissociation of quenched duplex DNA oligonucleotides, measured as fluorescence at 594 nm. To generate a functional strand incision and increase turn-over this assay is coupled to APE1.

[9] = Compound Concentration 10.0 uM, Hit No
[10] = Compound Concentration 1.0 uM, Hit No

Methyl-CpG-binding domain protein 4 (Homo sapiens), sequence (O95243 whole entry, the tested form may be a part): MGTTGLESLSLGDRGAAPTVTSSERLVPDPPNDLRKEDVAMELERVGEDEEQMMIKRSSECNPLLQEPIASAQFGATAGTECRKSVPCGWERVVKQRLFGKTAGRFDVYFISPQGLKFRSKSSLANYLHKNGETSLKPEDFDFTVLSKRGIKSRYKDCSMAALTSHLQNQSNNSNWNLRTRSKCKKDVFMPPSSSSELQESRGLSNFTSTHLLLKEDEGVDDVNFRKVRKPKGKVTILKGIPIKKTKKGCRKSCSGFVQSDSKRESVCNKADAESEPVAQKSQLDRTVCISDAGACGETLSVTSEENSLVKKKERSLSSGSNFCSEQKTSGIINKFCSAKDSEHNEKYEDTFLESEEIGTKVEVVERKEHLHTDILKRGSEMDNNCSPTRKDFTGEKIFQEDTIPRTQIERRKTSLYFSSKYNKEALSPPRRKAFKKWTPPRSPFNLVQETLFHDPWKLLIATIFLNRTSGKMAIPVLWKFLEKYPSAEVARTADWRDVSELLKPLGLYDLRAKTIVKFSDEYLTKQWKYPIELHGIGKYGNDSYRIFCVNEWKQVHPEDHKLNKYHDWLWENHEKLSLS
Endonuclease 8-like 1 (Homo sapiens), sequence (Q96FI4 whole entry): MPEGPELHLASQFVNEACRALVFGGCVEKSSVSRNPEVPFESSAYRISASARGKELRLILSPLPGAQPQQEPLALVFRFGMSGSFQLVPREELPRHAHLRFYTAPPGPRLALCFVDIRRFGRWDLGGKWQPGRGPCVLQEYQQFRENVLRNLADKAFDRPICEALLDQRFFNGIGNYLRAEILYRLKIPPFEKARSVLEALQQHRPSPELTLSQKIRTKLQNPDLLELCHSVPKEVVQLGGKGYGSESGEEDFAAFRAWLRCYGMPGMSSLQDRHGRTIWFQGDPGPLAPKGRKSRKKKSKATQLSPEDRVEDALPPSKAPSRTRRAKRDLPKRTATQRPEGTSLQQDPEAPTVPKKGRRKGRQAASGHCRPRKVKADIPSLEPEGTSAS
Uracil-DNA glycosylase (Homo sapiens), sequence (P13051 whole entry): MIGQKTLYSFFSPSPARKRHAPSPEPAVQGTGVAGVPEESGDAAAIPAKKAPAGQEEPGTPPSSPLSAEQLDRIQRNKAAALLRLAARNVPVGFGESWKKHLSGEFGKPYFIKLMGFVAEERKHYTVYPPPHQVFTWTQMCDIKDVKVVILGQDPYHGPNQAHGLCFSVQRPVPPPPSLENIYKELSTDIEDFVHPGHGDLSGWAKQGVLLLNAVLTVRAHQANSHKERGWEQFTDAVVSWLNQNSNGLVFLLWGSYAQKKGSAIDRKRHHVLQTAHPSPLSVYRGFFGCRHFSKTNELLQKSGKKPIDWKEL
N-glycosylase/DNA lyase (Homo sapiens), sequence (O15527 whole entry): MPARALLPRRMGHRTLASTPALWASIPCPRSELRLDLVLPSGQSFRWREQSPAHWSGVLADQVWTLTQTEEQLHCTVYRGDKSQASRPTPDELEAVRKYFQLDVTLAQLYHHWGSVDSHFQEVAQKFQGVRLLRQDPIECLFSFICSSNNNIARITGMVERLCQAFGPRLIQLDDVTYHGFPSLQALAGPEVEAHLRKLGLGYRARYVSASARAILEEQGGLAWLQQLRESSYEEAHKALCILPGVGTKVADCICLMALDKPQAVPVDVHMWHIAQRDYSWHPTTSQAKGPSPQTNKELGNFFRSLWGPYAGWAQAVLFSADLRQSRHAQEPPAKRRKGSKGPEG
G/T mismatch-specific thymine DNA glycosylase (Homo sapiens), sequence (Q13569 whole entry): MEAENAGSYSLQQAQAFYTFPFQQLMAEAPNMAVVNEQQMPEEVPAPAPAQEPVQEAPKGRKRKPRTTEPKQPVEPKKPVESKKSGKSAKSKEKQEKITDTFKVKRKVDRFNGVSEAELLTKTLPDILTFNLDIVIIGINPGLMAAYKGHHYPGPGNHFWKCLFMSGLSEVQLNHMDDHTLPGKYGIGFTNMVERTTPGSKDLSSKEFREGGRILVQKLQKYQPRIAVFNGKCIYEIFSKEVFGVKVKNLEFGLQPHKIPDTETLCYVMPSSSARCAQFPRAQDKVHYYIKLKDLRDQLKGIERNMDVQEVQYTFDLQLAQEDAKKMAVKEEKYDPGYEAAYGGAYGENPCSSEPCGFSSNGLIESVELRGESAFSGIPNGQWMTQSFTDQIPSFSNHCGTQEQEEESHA

## Nc1nc(NCc2ccccc2)nc(-c2cccc(CO)c2)n1
[1]; [9]
  inhibition: -2.67%
[2]; Compound Concentration 10.0 uM
  inhibition: -5.89%
[3]; Compound Concentration 10.0 uM
  inhibition: 0.878%
[4]; Compound Concentration 10.0 uM
  inhibition: -6.05%
[5]; Compound Concentration 10.0 uM
  inhibition: -1.51%
[6]; Compound Concentration 10.0 uM
  inhibition: 54%
[7]; Compound Concentration 10.0 uM
  inhibition: 32.3%
[8]; Compound Concentration 10.0 uM
  inhibition: -0.892%

## CNC(=O)c1cc(C(=O)N[C@H]2[C@@H]3COC[C@@H]32)cc2c1O[C@H](CF)[C@H]2c1ccccc1
[1]; [9]
  inhibition: 4.16%
[2]; Compound Concentration 10.0 uM
  inhibition: -3.26%
[3]; Compound Concentration 10.0 uM
  inhibition: 8.89%
[4]; Compound Concentration 10.0 uM
  inhibition: -1.35%
[5]; Compound Concentration 10.0 uM
  inhibition: 5.12%
[6]; Compound Concentration 10.0 uM
  inhibition: 47.2%
[7]; Compound Concentration 10.0 uM
  inhibition: 40.6%
[8]; Compound Concentration 10.0 uM
  inhibition: 2.78%

## O=C1NCN(c2ccccc2)C12CCN(CC1COc3ccccc3O1)CC2 (stereo not drawn)
[1]; [9]
  inhibition: -5.28%
[2]; Compound Concentration 10.0 uM
  inhibition: 2.66%
[3]; Compound Concentration 10.0 uM
  inhibition: 1.76%
[4]; Compound Concentration 10.0 uM
  inhibition: -5.84%
[5]; Compound Concentration 10.0 uM
  inhibition: -3.23%
[6]; Compound Concentration 10.0 uM
  inhibition: -3.04%
[7]; Compound Concentration 10.0 uM
  inhibition: 2.98%
[8]; Compound Concentration 10.0 uM
  inhibition: -8.19%

## CO[C@H]1CC[C@H](CNc2ccc(S(=O)(=O)NC(=O)c3ccc(N4CCN(CC5=C(c6ccc(Cl)cc6)CC(C)(C)CC5)CC4)cc3Oc3cnc4[nH]ccc4c3)cc2[N+](=O)[O-])CC1
[1]; [9]
  inhibition: 62%
[2]; Compound Concentration 10.0 uM
  inhibition: -7.86%
[3]; Compound Concentration 10.0 uM
  inhibition: 17.9%
[4]; Compound Concentration 10.0 uM
  inhibition: -6.8%
[5]; Compound Concentration 10.0 uM
  inhibition: 2.57%
[6]; Compound Concentration 10.0 uM
  inhibition: 55.7%
[7]; Compound Concentration 10.0 uM
  inhibition: 47.9%
[8]; Compound Concentration 10.0 uM
  inhibition: 3.44%

## CC(C)(O)c1cn(-c2ccc(-c3cccc(S(C)(=O)=O)c3)cc2)c(C(C)(C)c2ccccc2Cl)n1
[1]; [9]
  inhibition: 5%
[2]; Compound Concentration 10.0 uM
  inhibition: -2.6%
[3]; Compound Concentration 10.0 uM
  inhibition: 17.1%
[4]; Compound Concentration 10.0 uM
  inhibition: -5.44%
[5]; Compound Concentration 10.0 uM
  inhibition: -6.36%
[6]; Compound Concentration 10.0 uM
  inhibition: 15.3%
[7]; Compound Concentration 10.0 uM
  inhibition: 57.4%
[8]; Compound Concentration 10.0 uM
  inhibition: -9.54%

## CN1CCC[C@H]1c1cccnc1
[1]; [9]
  inhibition: -8.49%
[2]; Compound Concentration 10.0 uM
  inhibition: 8%
[3]; Compound Concentration 10.0 uM
  inhibition: -4.08%
[4]; Compound Concentration 10.0 uM
  inhibition: 4.6%
[5]; Compound Concentration 10.0 uM
  inhibition: -0.35%
[6]; Compound Concentration 10.0 uM
  inhibition: -6.38%
[7]; Compound Concentration 10.0 uM
  inhibition: -9.56%
[8]; Compound Concentration 10.0 uM
  inhibition: -2.67%

## O=C(O)c1ccc2cc(-c3ccc(O)c(C45CC6CC(CC(C6)C4)C5)c3)ccc2c1
[1]; Compound Concentration 10.0 uM, Hit Yes
  inhibition: 85.9%
[2]; Compound Concentration 10.0 uM
  inhibition: -1.29%
[3]; Compound Concentration 10.0 uM
  inhibition: 17.5%
[4]; Compound Concentration 10.0 uM
  inhibition: -4.23%
[5]; Compound Concentration 10.0 uM
  inhibition: -9.42%
[6]; Compound Concentration 10.0 uM
  inhibition: 57.8%
[7]; Compound Concentration 10.0 uM
  inhibition: 50.7%
[8]; Compound Concentration 10.0 uM
  inhibition: 4.34%

## Cc1cc(C)c(-n2ccn3nc(-c4cccnc4)cc23)cc1NC(=O)c1cc(C#N)cc(S(F)(F)(F)(F)F)c1
[1]; [10]
  inhibition: 1.96%
[2]; Compound Concentration 1.0 uM
  inhibition: -3.66%
[3]; Compound Concentration 1.0 uM
  inhibition: 7.64%
[4]; Compound Concentration 1.0 uM
  inhibition: -7.27%
[5]; Compound Concentration 1.0 uM
  inhibition: -7.9%
[6]; Compound Concentration 1.0 uM
  inhibition: 40%
[7]; Compound Concentration 1.0 uM
  inhibition: 50.8%
[8]; Compound Concentration 1.0 uM
  inhibition: 1.49%

## O=C(O)CCC/C=C\CC1C(O)CC(O)C1/C=C/C(O)COc1cccc(Cl)c1 (stereo not drawn)
[1]; [9]
  inhibition: -6.16%
[2]; Compound Concentration 10.0 uM
  inhibition: 21%
[3]; Compound Concentration 10.0 uM
  inhibition: -7.54%
[4]; Compound Concentration 10.0 uM
  inhibition: -0.0556%
[5]; Compound Concentration 10.0 uM
  inhibition: -0.234%
[6]; Compound Concentration 10.0 uM
  inhibition: -2.64%
[7]; Compound Concentration 10.0 uM
  inhibition: 2.98%
[8]; Compound Concentration 10.0 uM
  inhibition: -7.78%

## Cc1ccc2nc(CNCCCOc3ccccc3)cc(O)c2c1
[1]; [9]
  inhibition: 11.7%
[2]; Compound Concentration 10.0 uM
  inhibition: 2%
[3]; Compound Concentration 10.0 uM
  inhibition: 6.33%
[4]; Compound Concentration 10.0 uM
  inhibition: 0.467%
[5]; Compound Concentration 10.0 uM
  inhibition: -8.14%
[6]; Compound Concentration 10.0 uM
  inhibition: 18.2%
[7]; Compound Concentration 10.0 uM
  inhibition: 34.3%
[8]; Compound Concentration 10.0 uM
  inhibition: -1.26%

## O=C(NCCCC1CCCCC1)c1ccc(CNC(=O)c2cnn(-c3ccccc3)c2C(F)(F)F)cc1
[1]; [10]
  inhibition: 7.9%
[1]; [9]
  inhibition: 4.23%
[2]; Compound Concentration 10.0 uM
  inhibition: -3.4%
[3]; Compound Concentration 1.0 uM
  inhibition: 0.918%
[3]; Compound Concentration 10.0 uM
  inhibition: 6.97%
[4]; Compound Concentration 1.0 uM
  inhibition: -2.11%
[5]; Compound Concentration 1.0 uM
  inhibition: -8.65%
[6]; Compound Concentration 1.0 uM
  inhibition: 56.5%
[7]; Compound Concentration 1.0 uM
  inhibition: 42.2%
[7]; Compound Concentration 10.0 uM
  inhibition: 22.8%
[8]; Compound Concentration 1.0 uM
  inhibition: -2.97%
[8]; Compound Concentration 10.0 uM
  inhibition: 0.115%

## O=C(O)c1ccnc(N2CC(O)(c3ccc(OCc4c(-c5c(Cl)cccc5Cl)noc4C4CC4)cc3Cl)C2)c1
[1]; [9]
  inhibition: 35.5%
[2]; Compound Concentration 10.0 uM
  inhibition: 5.29%
[3]; Compound Concentration 10.0 uM
  inhibition: 16.5%
[4]; Compound Concentration 10.0 uM
  inhibition: -4.99%
[5]; Compound Concentration 10.0 uM
  inhibition: 3.34%
[6]; Compound Concentration 10.0 uM
  inhibition: 54.3%
[7]; Compound Concentration 10.0 uM
  inhibition: 97.2%
[8]; Compound Concentration 10.0 uM
  inhibition: 4.51%

## FC(F)(F)c1c(N2CCC(c3ccccc3)CC2)ccn2c(CC3CC3)nnc12
[1]; [9]
  inhibition: 0.771%
[2]; Compound Concentration 10.0 uM
  inhibition: 7.79%
[3]; Compound Concentration 10.0 uM
  inhibition: 1.61%
[4]; Compound Concentration 10.0 uM
  inhibition: -4.5%
[5]; Compound Concentration 10.0 uM
  inhibition: -1.48%
[6]; Compound Concentration 10.0 uM
  inhibition: 5.84%
[7]; Compound Concentration 10.0 uM
  inhibition: 16.4%
[8]; Compound Concentration 10.0 uM
  inhibition: -5.14%
